Data on two compounds can be found in publication PMC8799360, “In Vitro and In Vivo Effect of Xylopic Acid on Cytochrome P450 Enzymes” (Advances in Pharmacological and Pharmaceutical Sciences, 2022).

Each structure is given as a SMILES string.

This assay relates to T1, CYP 3A4.
T1 construct: liver microsomes from phenobarbitone-pretreated male rats
As to the kind of experiment: fluorometric benzyloxyresorufin (BROD) assay in rat liver microsomes. In kind it is biochemical.

The IC50 is the midpoint of a concentration-inhibition curve. Compound `CC(=O)N1CCN(c2ccc(OC[C@H]3CO[C@](Cn4ccnc4)(c4ccc(Cl)cc4Cl)O3)cc2)CC1` (racemic) [ketoconazole] came in with a half-inhibitory concentration (IC50) of […].
`C=C1[C@@H]2CC[C@H]3[C@]4(C)CCC[C@@](C)(C(=O)O)[C@H]4CC[C@]3(C2)[C@@H]1OC(C)=O` [XA, xylopic acid] yielded an IC50 of 1300 ± 10 nM.
